Columns and labels:
Test in all cases: normalized area under the dose-response curve (viability relative to DMSO control) (fraction); higher = less sensitive (more viable cells)
Settings in all cases: exposure time not given
[1] = tested on: SU-DHL6 (cancer type: DLBCL)
Protocol: (§1)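 25 myeloma and 15 non-Hodgkin lymphoma cell lines were exposed to each of 76 drugs as 7-point log dilutions (0.01 nM–10 µM) in duplicate. Viability was read with CellTiter-Glo and normalised to DMSO (0.1%) and staurosporine (10 µM) plate controls. Normalised AUC was calculated by the trapezoidal method relative to the negative control.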

[2] = tested on: JeKo-1 (cancer type: Mantle)
Protocol: as §1

OPM2 (cancer type: MM) = tested on: OPM2 (cancer type: MM)
Protocol: as §1

KMS18 (cancer type: MM) = tested on: KMS18 (cancer type: MM)
Protocol: as §1

[3] = tested on: RPMI 8226 (cancer type: MM)
Protocol: as §1

KMS26 (cancer type: MM) = tested on: KMS26 (cancer type: MM)
Protocol: as §1

AMO1 (cancer type: MM) = tested on: AMO1 (cancer type: MM)
Protocol: as §1

[4] = tested on: SU-DHL2 (cancer type: DLBCL)
Protocol: as §1

[5] = tested on: SR-786 (cancer type: TCL)
Protocol: as §1

U266 (cancer type: MM) = tested on: U266 (cancer type: MM)
Protocol: as §1

JJN3 (cancer type: MM) = tested on: JJN3 (cancer type: MM)
Protocol: as §1

My-La (cancer type: TCL) = tested on: My-La (cancer type: TCL)
Protocol: as §1

[6] = tested on: NCI-H929 (cancer type: MM)
Protocol: as §1

[7] = tested on: KMS28BM (cancer type: MM)
Protocol: as §1

XG2 (cancer type: MM) = tested on: XG2 (cancer type: MM)
Protocol: as §1

Se-Ax (cancer type: TCL) = tested on: Se-Ax (cancer type: TCL)
Protocol: as §1

[8] = tested on: OCI-LY3 (cancer type: DLBCL)
Protocol: as §1

EJM (cancer type: MM) = tested on: EJM (cancer type: MM)
Protocol: as §1

[9] = tested on: SU-DHL1 (cancer type: TCL)
Protocol: as §1

[10] = tested on: KMS28PE (cancer type: MM)
Protocol: as §1

SKMM2 (cancer type: MM) = tested on: SKMM2 (cancer type: MM)
Protocol: as §1

[11] = tested on: OCI-MY5/CRBN (cancer type: MM)
Protocol: as §1

[12] = tested on: KMS12PE (cancer type: MM)
Protocol: as §1

[13] = tested on: Mino (cancer type: Mantle)
Protocol: as §1

L363 (cancer type: MM) = tested on: L363 (cancer type: MM)
Protocol: as §1

[14] = tested on: OCI-LY1 (cancer type: DLBCL)
Protocol: as §1

LP1 (cancer type: MM) = tested on: LP1 (cancer type: MM)
Protocol: as §1

KMS11 (cancer type: MM) = tested on: KMS11 (cancer type: MM)
Protocol: as §1

[15] = tested on: JVM2 (cancer type: Mantle)
Protocol: as §1

FR4 (cancer type: MM) = tested on: FR4 (cancer type: MM)
Protocol: as §1

[16] = tested on: HuT 78 (cancer type: TCL)
Protocol: as §1

MM1.S (cancer type: MM) = tested on: MM1.S (cancer type: MM)
Protocol: as §1

MM1.R (cancer type: MM) = tested on: MM1.R (cancer type: MM)
Protocol: as §1

[17] = tested on: Granta-519 (cancer type: Mantle)
Protocol: as §1

[18] = tested on: OCI-MY5/Vec (cancer type: MM)
Protocol: as §1

[19] = tested on: OCI-MY5 (cancer type: MM)
Protocol: as §1

KMS34 (cancer type: MM) = tested on: KMS34 (cancer type: MM)
Protocol: as §1

[20] = tested on: Karpas-299 (cancer type: TCL)
Protocol: as §1

[21] = tested on: OCI-MY7 (cancer type: MM)
Protocol: as §1

[22] = tested on: OCI-LY19 (cancer type: DLBCL)
Protocol: as §1

SMILES | normalized area under the dose-response curve [1] | normalized area under the dose-response curve [2] | normalized area under the dose-response curve (OPM2 (cancer type: MM)) | normalized area under the dose-response curve (KMS18 (cancer type: MM)) | normalized area under the dose-response curve [3] | normalized area under the dose-response curve (KMS26 (cancer type: MM)) | normalized area under the dose-response curve (AMO1 (cancer type: MM)) | normalized area under the dose-response curve [4] | normalized area under the dose-response curve [5] | normalized area under the dose-response curve (U266 (cancer type: MM)) | normalized area under the dose-response curve (JJN3 (cancer type: MM)) | normalized area under the dose-response curve (My-La (cancer type: TCL)) | normalized area under the dose-response curve [6] | normalized area under the dose-response curve [7] | normalized area under the dose-response curve (XG2 (cancer type: MM)) | normalized area under the dose-response curve (Se-Ax (cancer type: TCL)) | normalized area under the dose-response curve [8] | normalized area under the dose-response curve (EJM (cancer type: MM)) | normalized area under the dose-response curve [9] | normalized area under the dose-response curve [10] | normalized area under the dose-response curve (SKMM2 (cancer type: MM)) | normalized area under the dose-response curve [11] | normalized area under the dose-response curve [12] | normalized area under the dose-response curve [13] | normalized area under the dose-response curve (L363 (cancer type: MM)) | normalized area under the dose-response curve [14] | normalized area under the dose-response curve (LP1 (cancer type: MM)) | normalized area under the dose-response curve (KMS11 (cancer type: MM)) | normalized area under the dose-response curve [15] | normalized area under the dose-response curve (FR4 (cancer type: MM)) | normalized area under the dose-response curve [16] | normalized area under the dose-response curve (MM1.S (cancer type: MM)) | normalized area under the dose-response curve (MM1.R (cancer type: MM)) | normalized area under the dose-response curve [17] | normalized area under the dose-response curve [18] | normalized area under the dose-response curve [19] | normalized area under the dose-response curve (KMS34 (cancer type: MM)) | normalized area under the dose-response curve [20] | normalized area under the dose-response curve [21] | normalized area under the dose-response curve [22]
Nc1cccc2c1C(=O)N(C1CCC(=O)NC1=O)C2=O (stereo not given) [Pomalidomide] | 0.989 | 0.843 | 0.963 | 0.886 | 0.959 | 0.86 | 0.879 | 0.917 | 0.947 | 0.96 | 0.994 | 0.875 | 0.78 | 0.925 | 0.77 | 0.767 | 0.979 | 0.879 | 0.846 | 0.962 | 0.973 | 0.908 | 0.9 | 0.884 | 0.887 | 0.964 | 0.871 | 0.912 | 0.889 | 0.949 | 0.986 | 0.74 | 0.76 | 0.87 | 0.897 | 0.9 | 0.917 | 0.914 | 0.9 | 0.854
Cc1ccc(C(=O)Nc2ccc(CN3CCN(C)CC3)c(C(F)(F)F)c2)cc1C#Cc1cnc2cccnn12 [Ponatinib] | 0.79 | 0.52 | 0.419 | 0.479 | 0.237 | 0.593 | 0.431 | 0.797 | 0.673 | 0.381 | 0.344 | 0.615 | 0.52 | 0.551 | 0.454 | 0.417 | 0.859 | 0.427 | 0.239 | 0.501 | 0.55 | 0.665 | 0.48 | 0.501 | 0.461 | 0.678 | 0.408 | 0.458 | 0.44 | 0.451 | 0.527 | 0.57 | 0.5 | 0.755 | 0.613 | 0.361 | 0.298 | 0.719 | 0.48 | 0.726
CC(C)(C)c1cc(NC(=O)Nc2ccc(-c3cn4c(n3)sc3cc(OCCN5CCOCC5)ccc34)cc2)no1 [Quizartinib] | 0.907 | 0.98 | 0.531 | 0.737 | 0.955 | 0.934 | 0.837 | 0.956 | 0.869 | 0.867 | 0.631 | 0.917 | 0.88 | 0.838 | 0.763 | 0.825 | 0.959 | 0.861 | 0.686 | 0.898 | 0.973 | 0.917 | 0.87 | 0.863 | 0.751 | 0.987 | 0.766 | 0.828 | 0.764 | 0.923 | 0.865 | 0.82 | 0.69 | 0.941 | 0.894 | 0.65 | 0.439 | 0.93 | 0.91 | 0.923
O=C(c1ccc(OCCN2CCCCC2)cc1)c1c(-c2ccc(O)cc2)sc2cc(O)ccc12 [Raloxifene] | 0.856 | 0.939 | 0.865 | 0.848 | 0.86 | 0.869 | 0.704 | 0.919 | 0.78 | 0.814 | 0.821 | 0.974 | 0.91 | 0.889 | 0.746 | 0.854 | 0.945 | 0.859 | 0.677 | 0.849 | 0.953 | 0.857 | 0.91 | 1.01 | 0.829 | 0.932 | 0.731 | 0.866 | 0.884 | 0.896 | 0.786 | 0.85 | 0.89 | 0.939 | 0.787 | 0.744 | 0.657 | 0.945 | 0.92 | 0.914
CNC(=O)c1cc(Oc2ccc(NC(=O)Nc3ccc(Cl)c(C(F)(F)F)c3)c(F)c2)ccn1 [Regorafenib] | 0.916 | 0.879 | 0.594 | 0.553 | 0.543 | 0.844 | 0.549 | 0.955 | 0.91 | 0.48 | 0.436 | 0.84 | 0.56 | 0.565 | 0.481 | 0.684 | 0.964 | 0.589 | 0.57 | 0.695 | 0.636 | 0.927 | 0.62 | 0.899 | 0.54 | 1 | 0.558 | 0.546 | 0.715 | 0.642 | 0.697 | 0.52 | 0.53 | 0.901 | 0.848 | 0.468 | 0.35 | 0.892 | 0.58 | 0.96
C/C=C1\NC(=O)[C@H]2CSSCC/C=C/[C@H](CC(=O)N[C@H](C(C)C)C(=O)N2)OC(=O)[C@H](C(C)C)NC1=O [Romidepsin] | 0.385 | 0.174 | 0.445 | 0.291 | 0.433 | 0.257 | 0.224 | 0.188 | 0.148 | 0.21 | 0.324 | 0.109 | 0.09 | 0.271 | 0.15 | 0.107 | 0.203 | 0.105 | 0.113 | 0.262 | 0.511 | 0.0857 | 0.24 | 0.178 | 0.401 | 0.118 | 0.447 | 0.382 | 0.148 | 0.152 | 0.0814 | 0.23 | 0.33 | 0.209 | 0.143 | 0.13 | 0.206 | 0.118 | 0.5 | 0.198
N#CC[C@H](C1CCCC1)n1cc(-c2ncnc3[nH]ccc23)cn1 [Ruxolitinib] | 0.928 | 1.01 | 0.931 | 0.978 | 0.997 | 0.802 | 0.911 | 0.959 | 0.83 | 0.833 | 0.894 | 0.775 | 0.91 | 0.913 | 0.804 | 0.828 | 0.944 | 0.886 | 0.713 | 0.879 | 0.958 | 0.993 | 0.91 | 0.983 | 0.863 | 0.997 | 0.861 | 0.87 | 0.774 | 0.927 | 0.853 | 0.91 | 0.85 | 0.925 | 0.898 | 0.853 | 0.708 | 0.742 | 0.89 | 0.972
O=C(/C=C\n1cnc(-c2cc(C(F)(F)F)cc(C(F)(F)F)c2)n1)NNc1cnccn1 [Selinexor] | 0.789 | 0.43 | 0.411 | 0.446 | 0.424 | 0.42 | 0.182 | 0.697 | 0.306 | 0.415 | 0.468 | 0.469 | 0.25 | 0.62 | 0.256 | 0.483 | 0.643 | 0.389 | 0.277 | 0.41 | 0.598 | 0.105 | 0.47 | 0.507 | 0.153 | 0.634 | 0.446 | 0.126 | 0.407 | 0.703 | 0.227 | 0.18 | 0.23 | 0.705 | 0.0963 | 0.151 | 0.313 | 0.553 | 0.13 | 0.38

— the supplement of paper PMC7214452
